For one experiment, the target named is T1, Falcipain-2 (Plasmodium falciparum, UniProt Q8I6U4).
T1 sequence (Q8I6U4 244-484): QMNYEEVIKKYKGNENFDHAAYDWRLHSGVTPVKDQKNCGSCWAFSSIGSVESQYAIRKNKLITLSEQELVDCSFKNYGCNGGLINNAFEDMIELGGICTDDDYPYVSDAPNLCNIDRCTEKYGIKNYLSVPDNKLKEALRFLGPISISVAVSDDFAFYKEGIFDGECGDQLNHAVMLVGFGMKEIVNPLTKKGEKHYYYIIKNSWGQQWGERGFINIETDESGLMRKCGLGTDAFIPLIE
In words: falcipain-2 enzymatic assay (fluorogenic substrate H-D-VLR-AFC, endpoint). Format: biochemical. The conditions noted are these: parasitic recombinant enzyme, pH 5.5, quenched after 60 minutes. Here is the method:
(§1) 1) Determination of Falcipain-2, Falcipain-3, Vivapain-2, and Cathepsin S Proteolytic Catalytic Activity
(§2) Assays for Falcipain-2, Falcipain-3, and Vivapain-2 are carried out with parasitic recombinant enzymes. Cathepsins S is carried out with human recombinant enzymes. Standard assay conditions for the determination of kinetic constants used a fluorogenic peptide substrate, typically H-D-VLR-AFC (Falcipain-2, Falcipain-3, Vivapain-2) or KQKLR-AMC (Cathepsin S) and are determined in 100 mM sodium acetate, pH 5.5, containing 10 mM DTT and 0.5 mM CHAPS (Falcipain-2, Falcipain-3, Vivapain-2), or 50 mM MES, pH 6.5, containing 0.5 mM CHAPS, 10 mM L-CYS, 5 mM EDTA (Cathepsin S). Stock substrate solutions are prepared at 20 mM in DMSO. The activity assays contained 30 uM substrate (Falcipain-2, Falcipain-3, Vivapain-2), and 30 uM substrate (Cathepsin S). All assays contained 1% DMSO. […] All assays are conducted at ambient temperature as end point assays being quenched after 60 minutes with the exception of Cathepsin S at 90 minutes, with 16.6 uM E-64 in 1% DMSO. Product formation (AFC or AMC) is determined from fluorescence (excitation at 405 nm; emission at 530 nm, AFC, or excitation at 360 nm; emission at 460 nm, AMC) monitored with a LJL Aquest (Molecular Devices) fluorescent plate reader. In the case of kinetic reads (used in mechanism of action studies), the reaction is not quenched but is read in the plate reader every 3 minutes for approximately 90 minutes. In addition, the mechanism of action studies for Falcipain-2 utilize Z-LR-AMC as the substrate. Product formation is determined from the fluorescence of AMC, measured with a LJL Acquest (Molecular Devices) fluorescent plate reader (excitation at 360 nm; emission at 460 nm).
(§3) Potential inhibitors are evaluated using the quenched read (endpoint) method. Assays are carried out in the presence of variable concentrations of test compound. Reactions are initiated by addition of enzyme and substrate to wells containing inhibitor stamped in 100% DMSO. For endpoint assays, the reaction is quenched with the addition of E64. Dose response data is fit to an IC50 curve with preset fitting tools according to equation 1:
(§4) y=a+(b−a)/(1+(10^X/10^C)^d) (1)
(§5) where y is the response at a particular inhibitor concentration x, a is the minimum response value, b is the maximum response value, c is the IC50, and d is the slope of the IC50 curve. Assuming the compound is a competitive inhibitor, the apparent KI can be calculated from IC50, as shown in equation 2: […]

The target in the next experiment is T2, Falcipain-3 (Plasmodium falciparum, UniProt Q8IIL0).
T2 sequence (Q8IIL0 243-492): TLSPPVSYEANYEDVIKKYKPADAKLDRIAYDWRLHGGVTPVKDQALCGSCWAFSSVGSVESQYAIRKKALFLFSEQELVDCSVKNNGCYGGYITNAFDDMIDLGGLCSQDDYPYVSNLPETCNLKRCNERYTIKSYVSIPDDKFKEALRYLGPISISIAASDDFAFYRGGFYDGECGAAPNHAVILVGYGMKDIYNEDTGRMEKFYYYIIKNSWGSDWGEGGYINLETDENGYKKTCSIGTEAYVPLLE
Kind of experiment: falcipain-3 enzymatic assay (fluorogenic substrate H-D-VLR-AFC, endpoint). Format: biochemical. The conditions noted are these: parasitic recombinant enzyme, pH 5.5, quenched after 60 minutes. Here is the method: as §1, §2, §3, §4, §5

In experiment [1] the test system is Plasmodium falciparum parasite. Kind of experiment: whole cell activity against the Plasmodium falciparum parasite. Format: cell-based. An excerpt: Equation 7 describes the apparent KI for competitive compounds and was substituted into equations 5 and 6 to generate the relevant binding constants from the fitting routine. In addition, the initial and final velocities were fit to equation 3 to further define the binding mechanism and potency. A complete discussion of this kinetic treatment has been fully described (Morrison et al., Adv. Enzymol. Relat. Areas Mol. Biol., 1988, 61, 201). 2) Determination of Whole Cell Activity Against the Plasmodium falciparum Parasite Compounds can be evaluated for whole cell activity against the Plasmodium falciparum parasite according to the procedure described in Sijwali S, and Rosenthal P. J., (2004) Proceedings of the National Academy of Sciences of the United States of America (PNAS) 101(13), 4384-4389 (see in particular “Measurement of Parasite Growth rates and Inhibitor Sensitivity” on page 4385); IC50 values can be calculated as described in Singh A. and Rosenthal P. J., (2001) Antimicrobial Agents and Chemotherapy 45(3), 949-951 (see in particular page 950, first column); synchronised parasites can be prepared as described in Divo A. A. et al., (1985) Protozool. 32, 59-64.

pIC50: −log10 of the molar value. Where a name gives a salt, the structure may show the parent alone.

With `CN1CCC(CN2CCN(Cc3ccc(C(=O)NN(CC4CCCC4)c4nc(C#N)nc5c4ncn5C)cc3)CC2)CC1` [Example 2, N′-(2-cyano-9-methyl-9H-purin-6-yl)-N′-(cyclopentylmethyl)-4-({4-[(1-methyl-4-piperidinyl)methyl]-1-piperazinyl}methyl)benzohydrazide trifluoroacetate], the values for the pIC50 (on Falcipain-2; at Falcipain-3; in experiment [1]) were 7.82 to 8.60, 6.82 to 7.82 and 6.82 to 7.82, respectively.

In the case of `CC(=O)N1CCC(N(NC(=O)OC(C)(C)C)c2nc(C#N)nc3c2ncn3C)CC1` [Example 20, 1,1-dimethylethyl-2-(1-acetyl-4-piperidinyl)-2-(2-cyano-9-methyl-9H-purin-6-yl)hydrazinecarboxylate], the pIC50 is 8.60 to 9.00 at Falcipain-2, 6.60 to 6.82 at Falcipain-3 and 6.60 to 6.82 in experiment [1].

For the molecule `CN1CCN(Cc2ccc(C(=O)NN(c3nc(C#N)nc4c3ncn4C(=O)N3CCN(C)CC3)C3CCCC3)cc2)CC1` [Example 34, N′-{2-cyano-9-[(4-methyl-1-piperazinyl)carbonyl]-9H-purin-6-yl}-N′-cyclopentyl-4-[(4-methyl-1-piperazinyl)methyl]benzohydrazide trifluoroacetate], the negative-log IC50 (pIC50) on Falcipain-2 was 8.60 to 9.00; on Falcipain-3 it was 6.82 to 7.82; in experiment [1] it was 6.82 to 7.82.

Consider `CN(C)CCn1cnc2c(N(CC3CCCC3)NC(=O)OC(C)(C)C)nc(C#N)nc21` [Example 13, 1,1-dimethylethyl 2-{2-cyano-9-[2-(dimethylamino)ethyl]-9H-purin-6-yl}-2-(cyclopentylmethyl)hydrazinecarboxylate trifluoroacetate], for which the pIC50 is ≥ 9.00 on Falcipain-2, 6.82 to 7.82 at Falcipain-3 and 6.82 to 7.82 in experiment [1].

In the case of `CN1CCN(C(=O)n2cnc3c(N(NC(=O)OC(C)(C)C)C4CCCC4)nc(C#N)nc32)CC1` [Example 29, 1,1-dimethylethyl 2-{2-cyano-9-[(4-methyl-1-piperazinyl)carbonyl]-9H-purin-6-yl}-2-cyclopentylhydrazinecarboxylate], the results for the pIC50 (at Falcipain-2; on Falcipain-3; in experiment [1]) were ≥ 9.00, 7.82 to 8.60 and 6.00 to 6.40, respectively.

On to `CN(C)CCCN(C(=O)OC(C)(C)C)N(CC1CCCC1)c1nc(C#N)nc2c1ncn2CCCN(C)C` [Example 16, 1,1-dimethylethyl 2-{2-cyano-9-[3-(dimethylamino)propyl]-9H-purin-6-yl}-2-(cyclopentylmethyl)-1-[3-(dimethylamino)propyl]hydrazinecarboxylate trifluoroacetate], for which the pIC50 is 7.82 to 8.60 on Falcipain-2, 6.60 to 6.82 at Falcipain-3 and 7.82 to 8.60 in experiment [1].

Turning to `CN1CCN(Cc2ccc(C(=O)NN(c3nc(C#N)nc4c3ncn4C(=O)N3CCN(C)CC3)C3CCCCC3)cc2)CC1` [Example 38, N′-{2-cyano-9-[(4-methyl-1-piperazinyl)carbonyl]-9H-purin-6-yl}-N′-cyclohexyl-4-[(4-methyl-1-piperazinyl)methyl]benzohydrazide trifluoroacetate], the pIC50 on Falcipain-2 was ≥ 9.00; at Falcipain-3, 7.82 to 8.60; in experiment [1], 6.82 to 7.82.

On to `CN(C)CCn1cnc2c(N(CC3CCCC3)NC(=O)c3ccc(CN4CCN(C)CC4)cc3)nc(C#N)nc21` [Example 14, N′-{2-cyano-9-[2-(dimethylamino)ethyl]-9H-purin-6-yl}-N′-(cyclopentylmethyl)-4-[(4-methyl-1-piperazinyl)methyl]benzohydrazide trifluoroacetate], for which the pIC50 on Falcipain-2 is 7.82 to 8.60; on Falcipain-3 it was 6.82 to 7.82; in experiment [1] it was 6.82 to 7.82.

Consider `CN1CCN(Cc2ccc(C(=O)NN(CC3CCCC3)c3nc(C#N)nc4c3ncn4C)cc2)CC1` [Example 23, N′-(2-cyano-9-methyl-9H-purin-6-yl)-N′-(cyclopentylmethyl)-4-[(4-methyl-1-piperazinyl)methyl]benzohydrazide trifluoroacetate], for which the pIC50 was 7.82 to 8.60 on Falcipain-2, 6.82 to 7.82 at Falcipain-3 and 6.00 to 6.40 in experiment [1].

Turning to `CN(C)CCCCNC(=O)n1cnc2c(N(NC(=O)OC(C)(C)C)C3CCCC3)nc(C#N)nc21` [Example 49, 1,1-dimethylethyl 2-[2-cyano-9-({[4-(dimethylamino)butyl]amino}carbonyl)-9H-purin-6-yl]-2-cyclopentylhydrazinecarboxylate trifluoroacetate], the negative-log IC50 (pIC50) on Falcipain-2 was 7.82 to 8.60; at Falcipain-3, 6.82 to 7.82; in experiment [1] it was < 6.00.

`CN(C)CCCn1cnc2c(N(CC3CCCC3)NC(=O)OC(C)(C)C)nc(C#N)nc21` [Example 12, 1,1-dimethylethyl 2-{2-cyano-9-[3-(dimethylamino)propyl]-9H-purin-6-yl}-2-(cyclopentylmethyl)hydrazinecarboxylate trifluoroacetate]: the pIC50 was 8.60 to 9.00 at Falcipain-2, 6.82 to 7.82 on Falcipain-3 and 6.82 to 7.82 in experiment [1].

As for `Cn1cnc2c(N(NC(=O)c3ccc(CN4CC(N5CCCC5)C4)cc3)C3CCCCC3)nc(C#N)nc21` [Example 11, N′-(2-cyano-9-methyl-9H-purin-6-yl)-N′-cyclohexyl-4-({[3-(1-pyrrolidinyl)-1-azetidinyl]methyl}benzohydrazide trifluoroacetate], the figures for the pIC50 (at Falcipain-2; at Falcipain-3; in experiment [1]) were 7.82 to 8.60, 6.82 to 7.82 and 6.82 to 7.82, respectively.

Turning to `CN1CCC(CN2CCN(Cc3ccc(C(=O)NN(c4nc(C#N)nc5c4ncn5C)C4CCCCC4)cc3)CC2)CC1` [Example 9, N′-(2-cyano-9-methyl-9H-purin-6-yl)-N′-cyclohexyl-4-({4-[(1-methyl-4-piperidinyl)methyl]-1-piperazinyl}methyl)-benzohydrazide trifluoroacetate], the pIC50 at Falcipain-2 is 7.82 to 8.60; at Falcipain-3 it was 6.82 to 7.82; in experiment [1] it was 7.82 to 8.60.

Turning to `Cn1cnc2c(N(NC(=O)c3ccc(CN4CC(N5CCCC5)C4)cc3)C3CCCC3)nc(C#N)nc21` [Example 7, N′-(2-cyano-9-methyl-9H-purin-6-yl)-N′-cyclopentyl-4-({[3-(1-pyrrolidinyl)-1-azetidinyl]methyl}benzohydrazide trifluoroacetate], the figures for the pIC50 (at Falcipain-2; on Falcipain-3; in experiment [1]) were 7.82 to 8.60, 6.40 to 6.60 and 6.82 to 7.82, respectively.

For the molecule `CN(C)CCn1cnc2c(N(NC(=O)OC(C)(C)C)C3CCCC3)nc(C#N)nc21` [Example 39, 1,1-dimethylethyl 2-{2-cyano-9-[2-(dimethylamino)ethyl]-9H-purin-6-yl}-2-cyclopentylhydrazinecarboxylate trifluoroacetate], the results for the pIC50 (on Falcipain-2; at Falcipain-3; in experiment [1]) were 7.82 to 8.60, 6.82 to 7.82 and 6.82 to 7.82, respectively.

The values above are taken from patent US20100105652A1, “PURINES AS CYSTEINE PROTEASE INHIBITORS” (Glaxo Group Limited, priority 2007, published 2010).
